From patent US20260356834A1, “ANTICONVULSIVE COMPOUNDS AND USES THEREOF” (Jazz Pharmaceuticals Research UK Limite, priority 2023, published 2026)
“And” between values parts separate entries of the source, which are not always exact repeats. Equal values may be shown once. Marks after values point to notes of the source that are not given here.

How the values were obtained:
C57BL/6J mice [1] = assay: mouse maximal electroshock seizure threshold model (MEST); format: in vivo
Description: Vehicle=1:2:17 ethanol:Solutol® (Kolliphor® HS 15):saline: 1 mL of ethanol and 2 mL of solutol were warmed to 60 °C and 17 mL of 0.9% saline was added slowly. […]
Vehicle=0.5% HPMC and 0.1% Tween 80:0.5% HPMC and 0.1% Tween 80 in water.

RjOrl: Swiss mice = assay: mouse 6 Hz (44 mA) model of partial seizures; format: in vivo; conditions: for Mean Forelimb Clonus +/− SEM: score 0-2; for Change from vehicle 2 (forelimb clonus): vs vehicle 2 (1:2:17)
From the text: The 6 Hz (44 mA) model of partial seizures, which detects anticonvulsant activity, follows that described by Brown et al. 1953.
[…] A decrease in forelimb clonus score is indicative of protection from seizure and an anticonvulsive effect.
When conducted at a 44 mA stimulus intensity in mice, the 6 Hz test can differentiate compounds with potential for the treatment of focal-onset seizures that are often resistant to current anti-epileptic drugs.
Male RjOrl: Swiss mice (Janvier Labs, 53940 Le Genest-Saint-Isle, France), 5 weeks old, weighing 27-38 g at the beginning of the experiment. Animals were acclimatized to the Test Facility for at least 5 days after delivery and randomly housed in groups of 5 to 8 in macrolon cages on wood litter with free access to food and water.
The animal house was maintained under artificial lighting (12 hours) between 7:00 and 19:00 in a controlled ambient temperature of 22±2 °C and relative humidity between 30-70%.
Before transcorneal stimulation, a drop of tetracaine solution (1%) was applied on each eye of the mouse for local anesthesia. Between 1-10 minutes later and at the designated pre-treatment (see below), the mice were administered a rectangular current (44 mA, rectangular pulse: 0.2 ms pulse width, 3 s duration, (6 Hz) via corneal electrodes connected to a constant current shock generator (Ugo Basile: type 7801).
The results for the number of seizures as reflected by forelimb clonus were recorded immediately after current administration. Forelimb clonus was scored as absent (0=no forelimb clonus), mild (1=clonus with one forelimb) and strong (2=clonus with both forelimbs). The experimenters were blinded to the treatment. […]
The administration volume was 10 mL/kg.
Due to the number of animals tested, the experiment was divided in 2 sub-experiments on 2 consecutive days with equivalent numbers of mice per group and per sub-experiment.
Data were discrete values so considered to be non-normally distributed based on validation data, therefore non-parametric tests were utilized. Quantitative data (scores) with the test substance were analyzed by comparing test compound-treated groups with the 1:2:17 vehicle control using Kruskal-Wallis test with Dunn's multiple comparisons test when the Kruskal-Wallis test was significant. Quantitative data with the reference substance were analyzed using Mann-Whitney U test as compared to saline vehicle.

C57BL/6J mice [2] = assay: mouse maximal electroshock seizure threshold model using minimal sample sizes (mini-MEST)
Description: An increase in seizure threshold is indicative of an anticonvulsive effect.
The ability of a test compound to alter the stimulus intensity, expressed as current (mA), required to induce the presence of tonic hind limb extensor convulsions, is assessed in the MEST.
In the mini-MEST test, a lower n number is used.
Male C57BL/6J mice were housed in groups of 6. Mice were kept under standard conditions (12 hour light cycle; light intensity of 25-75 lux) and fed a diet of certified rodent CR 14% protein rodent diet (LabDiet® 4CR4). Mice were 8-9 weeks old at the start of the study.
Naïve mice were acclimatised to the procedure room in their home cages for up to 7 days, with food and water available ad libitum.
All animals were weighed at the beginning of the study and randomly assigned to treatment groups based on a mean distribution of body weight across groups.
The first animal within a treatment group was given a shock at the expected or estimated CC50 current. For subsequent animals, the current was lowered or raised depending on the convulsions outcome from the preceding animal in log scale intervals.
Data generated from each treatment group were used to calculate the CC50±SEM values for the treatment group.
Vehicle: (5% ethanol, 10% Solutol® (Kolliphor® HS 15), 85% saline). 1 mL of ethanol, 2 mL of Solutol™ were warmed to 60 °C, in 17 mL of 0.9% saline.
Test compounds: 5-50 mg/kg in a 1:2:17 ethanol:Solutol®:saline formulation (as used for vehicle).

[3] = 10 mg/kg p.o., 30 min, HPMC vehicle
[4] = 10 mg/kg p.o., 30 min, vs HPMC vehicle
[5] = 50 mg/kg p.o., 30 min, HPMC vehicle
[6] = 10 mg/kg i.p., 15 min post dose
[7] = 10 mg/kg i.p., 30 min post dose
[8] = 10 mg/kg i.p., 60 min post dose
[9] = 30 mg/kg i.p., 30 min post dose
[10] = 25 mg/kg p.o., 15 min post dose
[11] = 25 mg/kg p.o., 60 min post dose
[12] = 50 mg/kg p.o., 30 min post dose
[13] = 50 mg/kg p.o., 60 min post dose
[14] = 50 mg/kg p.o., 120 min post dose
[15] = 50 mg/kg p.o., 240 min post dose

CCCc1cc(O)c(-c2c(C)ccn3ccnc23)c(O)c1 [Compound 2, 2-(7-Methylimidazo[1,2-a]pyridin-8-yl)-5-propylbenzene-1,3-diol]
CC50 +/− SEM (C57BL/6J mice [1]; 1 mg/kg i.p., 15 min, 1:2:17 ethanol:Solutol:saline): 26.0 ± 0.4 mA | Change from vehicle (CC50) (C57BL/6J mice [1]; 1 mg/kg i.p., 15 min, vs 1:2:17 ethanol:Solutol:saline vehicle): 11%^### | CC50 +/− SEM (C57BL/6J mice [1]; 5 mg/kg i.p., 15 min, 1:2:17 ethanol:Solutol:saline): 29.4 ± 0.9 mA | Change from vehicle (CC50) (C57BL/6J mice [1]; 5 mg/kg i.p., 15 min, vs 1:2:17 ethanol:Solutol:saline vehicle): 26%^### | CC50 +/− SEM (C57BL/6J mice [1]; [3]): 27.0 ± 0.7 mA | Change from vehicle (CC50) (C57BL/6J mice [1]; [4]): 17%*** | CC50 +/− SEM (C57BL/6J mice [1]; 30 mg/kg i.p., 30 min, 1:2:17 ethanol:Solutol:saline): 38.2 ± 1.5 mA | Change from vehicle (CC50) (C57BL/6J mice [1]; 30 mg/kg i.p., 30 min, vs 1:2:17 ethanol:Solutol:saline vehicle): 64%^### | CC50 +/− SEM (C57BL/6J mice [1]; [5]): 38.2 ± 0.5 mA | Change from vehicle (CC50) (C57BL/6J mice [1]; 50 mg/kg p.o., 30 min, vs HPMC vehicle): 66%*** | CC50 +/− SEM (C57BL/6J mice [1]; 60 mg/kg i.p., 30 min, 1:2:17 ethanol:Solutol:saline): 59.5 ± 2.6 mA | Change from vehicle (CC50) (C57BL/6J mice [1]; 60 mg/kg i.p., 30 min, vs 1:2:17 ethanol:Solutol:saline vehicle): 155%^### | Mean Forelimb Clonus +/− SEM (RjOrl: Swiss mice; 10 mg/kg i.p., 30 min): 0.7 ± 0.1 | Change from vehicle 2 (forelimb clonus) (RjOrl: Swiss mice; 10 mg/kg i.p., 30 min): −22% | Mean Forelimb Clonus +/− SEM (RjOrl: Swiss mice; 30 mg/kg i.p., 15 min): 0.7 ± 0.1 | Change from vehicle 2 (forelimb clonus) (RjOrl: Swiss mice; 30 mg/kg i.p., 15 min): −22% | Mean Forelimb Clonus +/− SEM (RjOrl: Swiss mice; 60 mg/kg i.p., 30 min): 0.7 ± 0.1 | Change from vehicle 2 (forelimb clonus) (RjOrl: Swiss mice; 60 mg/kg i.p., 30 min): −22% | sedation (RjOrl: Swiss mice; 100 mg/kg i.p.): slight sedation observed | Mean Forelimb Clonus +/− SEM (RjOrl: Swiss mice; 100 mg/kg i.p., 30 min): 0.3 ± 0.1 | Change from vehicle 2 (forelimb clonus) (RjOrl: Swiss mice; 100 mg/kg i.p., 30 min): −67% | adverse signs (RjOrl: Swiss mice; 10, 30 or 60 mg/kg i.p.): no adverse signs were noted | CC50 +/− SEM (C57BL/6J mice [2]; [6]): 67.5 ± 2.6 mA and 65.8 ± 1.9 mA | Change from vehicle (CC50) (C57BL/6J mice [2]; [6]): 150% and 145% | CC50 +/− SEM (C57BL/6J mice [2]; [7]): 35.3 ± 1.1 mA | Change from vehicle (CC50) (C57BL/6J mice [2]; [7]): 32% | CC50 +/− SEM (C57BL/6J mice [2]; [8]): 56.0 ± 1.6 mA | Change from vehicle (CC50) (C57BL/6J mice [2]; [8]): 109% | CC50 +/− SEM (C57BL/6J mice [2]; [9]): >131.0 mA | Change from vehicle (CC50) (C57BL/6J mice [2]; [9]): 414%

CCCc1cc(O)c(-c2c(C)c(Cl)cn3ccnc23)c(O)c1 [Compound 4, 2-(6-Chloro-7-methylimidazo[1,2-a]pyridin-8-yl)-5-propylbenzene-1,3-diol]
CC50 +/− SEM (C57BL/6J mice [1]; 5 mg/kg p.o., 15 min, HPMC vehicle): 23.5 ± 2.1 mA | Change from vehicle (CC50) (C57BL/6J mice [1]; 5 mg/kg p.o., 15 min, vs HPMC vehicle): 11% | CC50 +/− SEM (C57BL/6J mice [1]; [3]): 22.5 ± 0.3 mA | Change from vehicle (CC50) (C57BL/6J mice [1]; [4]): 14% | CC50 +/− SEM (C57BL/6J mice [1]; 25 mg/kg p.o., 15 min, HPMC vehicle): 27.5 ± 1.3 mA | Change from vehicle (CC50) (C57BL/6J mice [1]; 25 mg/kg p.o., 15 min, vs HPMC vehicle): 32%** | CC50 +/− SEM (C57BL/6J mice [1]; 25 mg/kg p.o., 30 min, HPMC vehicle): 60.8 ± 2.9 mA | Change from vehicle (CC50) (C57BL/6J mice [1]; 25 mg/kg p.o., 30 min, vs HPMC vehicle): 132%*** | CC50 +/− SEM (C57BL/6J mice [1]; [5]): 92.5 ± 3.2 mA and 125.0 ± 33.4 mA | CC50 +/− SEM (C57BL/6J mice [1]; 100 mg/kg p.o., 30 min, HPMC vehicle): 200.0 ± 3.7 mA | Change from vehicle (CC50) (C57BL/6J mice [1]; 100 mg/kg p.o., 30 min, vs HPMC vehicle): 860%*** | Mean Forelimb Clonus +/− SEM (RjOrl: Swiss mice; 10 mg/kg i.p., 30 min): 1.00 ± 0.11 | Change from vehicle 2 (forelimb clonus) (RjOrl: Swiss mice; 10 mg/kg i.p., 30 min): +54% | Mean Forelimb Clonus +/− SEM (RjOrl: Swiss mice; 30 mg/kg i.p., 15 min): 0.30 ± 0.11 | Change from vehicle 2 (forelimb clonus) (RjOrl: Swiss mice; 30 mg/kg i.p., 15 min): −54% | Mean Forelimb Clonus +/− SEM (RjOrl: Swiss mice; 60 mg/kg i.p., 30 min): 0.30 ± 0.11 | Change from vehicle 2 (forelimb clonus) (RjOrl: Swiss mice; 60 mg/kg i.p., 30 min): −54% | Mean Forelimb Clonus +/− SEM (RjOrl: Swiss mice; 100 mg/kg i.p., 30 min): 0.11 ± 0.07 | Change from vehicle 2 (forelimb clonus) (RjOrl: Swiss mice; 100 mg/kg i.p., 30 min): −83%** | sedation (RjOrl: Swiss mice; 60 and 100 mg/kg i.p.): ***p < 0.001; relatively low forelimb seizure scores in the 1:2:17 vehicle group may impact data interpretation; slight to moderate sedation observed with Compound 4 at 60 and 100 mg/kg. | CC50 +/− SEM (C57BL/6J mice [2]; [10]): 80.9 ± 3.7 mA | Change from vehicle (CC50) (C57BL/6J mice [2]; [10]): 216% | CC50 +/− SEM (C57BL/6J mice [2]; 25 mg/kg p.o., 30 min post dose): 92.9 ± 1.1 mA and 53.5 ± 3.4 mA and 106.6 ± 1.1 mA | CC50 +/− SEM (C57BL/6J mice [2]; [11]): 70.5 ± 1.1 mA | Change from vehicle (CC50) (C57BL/6J mice [2]; [11]): 176% | CC50 +/− SEM (C57BL/6J mice [2]; [9]): 70.5 ± 1.1 mA | Change from vehicle (CC50) (C57BL/6J mice [2]; [9]): 140% | CC50 +/− SEM (C57BL/6J mice [2]; [12]): 80.9 ± 1.1 mA | Change from vehicle (CC50) (C57BL/6J mice [2]; [12]): 145% | CC50 +/− SEM (C57BL/6J mice [2]; [13]): >131.0 mA | Change from vehicle (CC50) (C57BL/6J mice [2]; [13]): >297% | CC50 +/− SEM (C57BL/6J mice [2]; [14]): 61.4 ± 1.1 mA | Change from vehicle (CC50) (C57BL/6J mice [2]; [14]): 100% | CC50 +/− SEM (C57BL/6J mice [2]; [15]): 61.4 ± 3.7 mA | Change from vehicle (CC50) (C57BL/6J mice [2]; [15]): 100%
